Assay results from PubChem BioAssay (NCI).
“And” between values parts separate entries of the source, which are not always exact repeats. Identical values can stand only once.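 Briefly, cells in 96-well plates were exposed to five compound concentrations for 48 h, and endpoints were estimated by linear interpolation. Abbreviation: GI50, concentration required for 50% inhibition of growth. TGI denotes the concentration required for complete inhibition of growth.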

Tests used:
Experiment in all cases: NCI-60 cell line screen, 48 h
PC-3 prostate = system: PC-3 prostate
MCF7 breast = system: MCF7 breast
BT-549 breast = system: BT-549 breast
T-47D breast = system: T-47D breast

| SMILES | GI50 (PC-3 prostate) | TGI (PC-3 prostate) | GI50 (MCF7 breast) | TGI (MCF7 breast) | GI50 (BT-549 breast) | TGI (BT-549 breast) | GI50 (T-47D breast) | TGI (T-47D breast) |
| --- | --- | --- | --- | --- | --- | --- | --- | --- |
| COc1cc(C2CC(c3cc(Cl)c(C)cc3O)=NN2c2ccc(S(N)(=O)=O)cc2)cc(OC)c1OC (stereo not drawn) | 2.27 µM | 8.94 µM | 2.77 µM | 10.3 µM | 2.6 µM | 7.01 µM | 2.28 µM | 7.06 µM |
| Cc1c(-c2ccnc(N)n2)c2c(n1-c1ccccc1)C(=O)c1ccccc1C2=O | > 100 µM | > 100 µM |  |  | 6.3 µM | 29.9 µM | 51.4 µM | > 100 µM |
| Cn1ccnc1C(=O)/C=C/c1ccc(CC(=O)Nc2cc(F)c(F)c(F)c2)cc1 | 1.26 µM | 5.65 µM | 1.36 µM | 6.82 µM | 1.15 µM | 4.47 µM | 1.29 µM | 8.14 µM |
| Nc1ccc(Sc2ccc3c4c2cccc4c(=O)n2c4ccccc4nc32)cc1 | 2.67 µM | 21.7 µM | 2.71 µM | 35.3 µM | 6.06 µM | 56.3 µM | 3.87 µM | 33.4 µM |
| COc1ccc(OC)c(/C=C/C(=O)c2ccc(SC)cc2)c1 | 3.49 µM | 14.9 µM | 3.98 µM | 12.8 µM | 2.8 µM | 7.01 µM | 18.1 µM | > 100 µM |
| COc1ccc2c(c1)/C(=N/OC(C)=O)c1c-2c(Nc2ccc(/C(C)=N/OC(C)=O)cc2)nc2ccccc12 | 18.8 µM | 38.4 µM | 53 µM | > 100 µM | > 100 µM | > 100 µM | 20.6 µM | 43 µM |
| CN1CCN(Cc2ccc(NC(=O)c3cncc(C#Cc4cncc5[nH]ncc45)c3)cc2C(F)(F)F)CC1 | 1.14 µM | 5.68 µM | 1.09 µM | 6.77 µM | 1.39 µM | 5.58 µM | 1.8 µM | 9.4 µM |
| O=C(Nc1ccc(I)cc1F)c1cc(F)ccc1O | 0.843 µM | 6.4 µM | 1.48 µM | > 25.3 µM | 0.301 µM | 1.05 µM | 0.313 µM | 3 µM |
| c1ccc(-c2nn(-c3ccccc3)[n+](-c3ccccc3-c3ccccc3)n2)cc1 | 0.37 µM | 6.18 µM | 0.462 µM | 11.5 µM | 0.461 µM | 7.87 µM | 0.974 µM | > 42.1 µM |
| COc1cc2cc(Oc3ccc(NC(=O)Nc4cc(C(F)(F)F)cc(C(F)(F)F)c4)cc3)c(C)nc2cc1OCCN1CCCCC1 | 1.49 µM | 2.85 µM | 1.68 µM | 3.43 µM | 1.8 µM | 3.41 µM | 1.85 µM | 3.77 µM |
| O=C(CN1CCN(c2cc3c(cc2F)c(=O)c(C(=O)O)cn3C2CC2)CC1)Nc1ccc(C(=O)/C=C/c2ccccc2)cc1 | 3.16 µM | > 100 µM | 3.52 µM | > 100 µM | 3.55 µM | > 100 µM | 6.66 µM | > 100 µM |
| Fc1ccc(-c2ncn(C3CCNCC3)c2-c2ccnc(Oc3ccc(Oc4ccccc4)cc3)n2)cc1 | 3.49 µM | 6.87 µM | 3.23 µM | 6.9 µM | 3.75 µM | 7.1 µM | 4.45 µM | 8.55 µM |
| COc1ccc(C(=O)C(CN(C)C)c2ccccc2)cc1 (stereo not drawn) | 4.6 µM | 17.4 µM | 1.9 µM | 5.98 µM | 1.76 µM | 4.56 µM | 2.75 µM | 9.01 µM |
| CCN(Cc1cccc(C)c1)c1ccc(CO)c(Cl)c1 | 12.6 µM | 26.1 µM | 0.366 µM | 11.1 µM | 13.4 µM | 27.2 µM | 0.294 µM | 1.81 µM |
| COc1ccc(C2C3=C(COC3=O)N(CCO)c3cc4c(cc32)CCC4)cc1OC (stereo not drawn) | 0.524 µM | > 50 µM | 0.176 µM | > 50 µM | 3.42 µM | > 50 µM | 0.797 µM | > 50 µM |
| CCOC(=O)Nc1ccc2nc(Sc3ccc(Cl)cc3)sc2c1 | 4.27 µM | > 100 µM | 1.66 µM | > 58.7 µM | 11.6 µM | 46.3 µM | 5.93 µM | > 78.7 µM |
| Clc1ccc2c(NCCNc3nc(Cl)nc4ccccc34)ccnc2c1 | 1.6 µM | 3.12 µM |  |  | 1.81 µM | 3.72 µM | 1.39 µM | 3.34 µM |
| O=C(N/N=C\c1cc(Br)cc(Br)c1O)N/N=C/c1cc(Br)cc(Br)c1O | 2.9 µM | 16.7 µM | 2.89 µM | 12.3 µM | 5.54 µM | 25.7 µM | 4.02 µM | 17.7 µM |

| SMILES | GI50 (PC-3 prostate) | TGI (PC-3 prostate) | GI50 (MCF7 breast) | TGI (MCF7 breast) | GI50 (BT-549 breast) | TGI (BT-549 breast) | GI50 (T-47D breast) | TGI (T-47D breast) |
| --- | --- | --- | --- | --- | --- | --- | --- | --- |
| CCN(CC)Cc1cc(Nc2c3ccc(Cl)cc3nc3c(C)cccc23)ccc1O | 1.55 µM | 3.1 µM | 1 µM | 2.32 µM | 1.92 µM | 3.51 µM | 2.09 µM | 4.08 µM |
| Cc1cccc(Cc2cnc(NC(=O)/C=C/c3ccco3)s2)c1 | 0.04 µM | > 100 µM | 0.0331 µM | > 100 µM | 0.174 µM | > 100 µM | 0.033 µM | > 100 µM |
| COC(=O)CCCCCCCCC(=O)c1c(C)[nH]c(/C=C2\N=C(c3ccc[nH]3)C=C2OC)c1C | 4.88 µM | > 100 µM | 64.4 µM | > 100 µM | 3.39 µM | > 100 µM | > 48.1 µM | > 89.3 µM |
| NC(=S)c1cn(C2OC(CO)C(O)C2O)c2ncnc(N)c12 (stereo not drawn) | 0.283 µM | > 20.1 µM | 0.0673 µM | 0.303 µM | 0.149 µM | 1.65 µM | 0.0195 µM | 0.0929 µM |
| COC(=O)C1=C(C)NC(C)=C(C(=O)OC)C1c1ccccc1[N+](=O)[O-] | 50.3 µM | > 100 µM | > 100 µM | > 100 µM | > 100 µM | > 100 µM | 50.9 µM | > 100 µM |
| S=C1NC2=C(CCOc3c2ccc2ccccc32)C(c2ccc(Cl)cc2)N1 (stereo not drawn) | 35.8 µM | > 100 µM | 16.2 µM | > 100 µM | 25.8 µM | 91.9 µM | 3.36 µM | 17.2 µM |
| Nc1cc2ccncc2c2ccccc12 | 16.2 µM | > 100 µM | 19.1 µM | > 100 µM | 23.9 µM | > 100 µM | 22.3 µM | > 100 µM |
| CCOC(=O)CCC(NC(=O)c1ccc(Nc2nc3cc(N)cc(N)c3nc2-c2ccccc2)cc1)C(=O)OCC (stereo not drawn) | 20.5 µM | 89 µM | 34.8 µM | > 100 µM | 40.1 µM | > 100 µM | 6.7 µM | > 22.1 µM |
| COC(=O)C12CC(NC(=O)c3csc([C@@H](C[C@H](C(C)C)N(C)C(=O)[C@@H](NC(=O)[C@H]4CCCCN4C)C(C)C)OC(C)=O)n3)(C1)C2 | 0.00639 µM and 0.00333 µM | > 33.3 µM | 0.000598 µM and 0.00333 µM | > 33.3 µM | 0.00439 µM and 0.00341 µM | 0.0939 µM and 0.33 µM | 0.00407 µM |  |
| CCN(CC)CCn1nc2c3c(cccc3c1=O)-c1ccccc1-2 | 3.55 µM | 23.6 µM | 0.715 µM | 3.51 µM | 6.16 µM | 15.1 µM | 2.06 µM | 27 µM |
| CCN(CC)c1ccc(/C=C2/NC(=O)NC2=O)cc1 | 12.1 µM | > 100 µM | 2.84 µM | > 100 µM | 7.49 µM | > 100 µM | 4.09 µM | > 71.5 µM |
| CC(=O)O[C@H]1Cc2c([nH]c3ccccc23)[C@@H](c2ccc(Cl)cc2)N1C(=O)CCNC(C)(C)C | 3.48 µM | 8.12 µM | 3.25 µM | 7.74 µM | 4 µM | 8.27 µM | 3.6 µM | 8.36 µM |
| CCc1cc(Nc2nccc(-c3c(-c4ccc(OC)c(C(=O)Nc5c(F)cccc5F)c4)nc4ccccn34)n2)c(OC)cc1N1CCC(N2CCN(S(C)(=O)=O)CC2)CC1 | > 100 µM | > 100 µM |  | > 100 µM | > 100 µM | > 100 µM | > 100 µM | > 100 µM |
| O=C(c1nc2ccccc2[nH]1)C1C(c2cccc([N+](=O)[O-])c2)C2CC3CCCCC3N2[C@@]12C(=O)Nc1cc(Cl)ccc12 (stereo partly drawn) | 1.3 µM | 4.4 µM | 1.95 µM | 7.11 µM | 1.77 µM | 4.36 µM | 0.998 µM | > 100 µM |
| c1ccc2c(Nc3ccc4c(c3)OCO4)c3ccoc3nc2c1 | 18.9 µM | 95.5 µM | 12.6 µM | > 100 µM |  |  | 29.3 µM | > 100 µM |
| N#CCCCCCn1c2ccccc2c2c3c(c4c5ccccc5[nH]c4c21)C(=O)N(O)C3=O | 1.39 µM | 4.51 µM |  |  | 1.84 µM | 9.53 µM | 0.455 µM | 8.65 µM |
| C=C1C(=O)O[C@H]2[C@H]1CC/C(COC(=O)c1ccc(Br)cc1)=C\CC[C@@]1(C)O[C@@H]21 | 1.69 µM | 3.19 µM | 0.645 µM | 2.97 µM | 1.3 µM | 3.01 µM |  |  |
